Structures can show the parent of a compound that is named as a salt. Where two headings read alike, the source gives them in different places.
How the values were obtained:
[1] = system: morphine-pelleted mice; assay: opioid withdrawal study in morphine-pelleted mice; conditions: for withdrawal symptoms (wet-dog shakes, escape jumps, paw tremors): 1 mg/kg s.c., compared to 1 mg/kg NLX
[2] = biological target: T1, DOR (Homo sapiens, UniProt P41143); assay: competitive radioligand binding assay, DOR ([3H]diprenorphine, CHO cell membranes); conditions: read-out: Ki (nM) DOR
T1 construct: expressed in transfected cells; host or cells: CHO

[3] = biological target: T2, MOR (Mus musculus, UniProt P42866); conditions: read-out: Ki (nM) MOR; Example 1 compounds (Tables 1, 2)
[4] = biological target: T3, KOR (Mus musculus, UniProt P33534); assay: competitive radioligand binding assay, KOR ([3H]diprenorphine, CHO cell membranes); design: expressed in transfected cells; host or cells: CHO; conditions: read-out: Ki (nM) KOR
[5] = system: male Swiss Webster mice; assay: warm-water tail immersion (tail flick / tail-withdrawal) assay, antinociception; format: in vivo, mouse; conditions: Example 1 compounds; 10 mg/kg s.c., 20 min after injection
Method: In this assay, the duration for which mice kept their tails in the warm water was recorded.
All thirty-six compounds' antinociception were examined in tail immersion assay first to preclude any opioid receptor agonists.
Swiss Webster mice (six male mice for each group, 25-35 g, 6-8 weeks old) were used in this assay. Antinociception for all compounds was examined in male Swiss Webster mice. […] To prevent tissue damage, a 10 s maximum cutoff time was imposed. Antinociceptive response was calculated as the percentage of maximum possible effect (% MPE), where % MPE=[(test−control latency)/(10−control latency)]×100.
Warm-water tail immersion assay is a well-established assay for evaluating opioid analgesics, especially MOR agonists. […] In this context, all 24 compounds were first evaluated for their acute antinociception tail-withdrawal assay (FIG. 5A).
The tail-withdrawal test was performed using a water bath with the temperature maintained at 56±0.1° C. Baseline latency was measured before any injections. Each mouse was gently wrapped in a cloth with only the tail exposed. The distal one-third of the tail was immersed perpendicularly in water, and the mouse rapidly flicked the tail from the bath was seen as the first sign of discomfort. The duration of time the tail remained in the water bath was counted as the baseline latency. Untreated mice with baseline latency reaction times ranging from 2 to 4 seconds were used. Test latency was obtained 20 min later after each injection. A 10-second maximum cutoff latency was used to prevent any tissue damage. Antinociception was quantified as the percentage of maximal possible effect (% MPE), which was calculated as % MPE=[(test latency−control latency)/(10−control latency)]×100. The % MPE value was calculated for each mouse using 6 mice per group. Testing compounds were given 10 mg/kg (s.c.) to each mouse.

[6] = biological target: T2, MOR; assay: MOR [35S]GTPγS functional assay (MOR-CHO membranes); format: biochemical; design: expressed in transfected cells; host or cells: CHO; conditions: read-out: MOR [35S]GTPγS Binding % Emax of DAMGO
Method: The [^35S]GTPγS functional assay was conducted to determine the efficacy of the compounds at the MOR. […] The Bradford protein assay was utilized to determine and adjust the concentration of protein required for the assay. Nonspecific binding was determined with 20 μM unlabeled GTPγS. Furthermore, 3 μM DAMGO was included in the assay as the maximally effective concentration of a full agonist for the MOR. After incubation, the bound radioactive ligand was separated from the free radioligand by filtration through a GF/B glass fiber filter paper and rinsed three times with ice-cold wash buffer (50 mM Tris-HCl, pH 7.2) using the Brandel harvester. Bound radioactivity was determined by liquid scintillation counting. All assays were determined in duplicate and repeated at least three times. Net stimulated [^35S]GTPγS binding was defined as agonist-stimulated minus basal binding in the absence of agonist. Percent of DAMGO-stimulated [^35S]GTPγS binding was defined as (net-stimulated binding by ligand/net-stimulated binding by 3 μM DAMGO)×100%.
Results were reported as mean values ±SEM.
The [^35S]-GTPγS binding assay was carried out as well to determine the functionality on the MOR of each compound. […] The [^35S]GTPγS functional assay was conducted to determine the efficacy of the compounds at the MOR, KOR and DOR. […] The Bradford protein assay was utilized to determine and adjust the concentration of protein required for the assay. Nonspecific binding was determined with 20 μM unlabeled GTPγS. Furthermore, 3 μM DAMGO/U50488H/SNC80 was included in the assay as the maximally effective concentration of a full agonist for the MOR/KOR/DOR. After incubation, the bound radioactive ligand was separated from the free radioligand by filtration through a GF/B glass fiber filter paper using a Brandel harvester. Bound radioactivity was determined by liquid scintillation counting. All assays were determined in duplicate and repeated at least three times. Net stimulated [^35S]GTPγS binding was defined as agonist-stimulated minus basal binding in the absence of agonist. Percent of DAMGO/U50488H/SNC80 stimulated [^35S]GTPγS binding was defined as (net-stimulated binding by ligand/net-stimulated binding by 3 μM DAMGO U50488H/SNC80)×100%.

[7] = system: mice; assay: carmine red dye study (GI tract motility, morphine-induced constipation)
[8] = biological target: Human recombinant opioid receptors (MOR) (Homo sapiens, UniProt P35372); conditions: read-out: MOR [35S]-GTPγS Binding EC50; MNTX, reported data; cited from earlier work
[9] = male rats, oral administration; cited from earlier work
[10] = biological target: Human recombinant opioid receptors (KOR) (Homo sapiens, UniProt P41145); conditions: read-out: KOR [35S]-GTPγS binding EC50; MNTX, reported data; cited from earlier work
[11] = system: male Swiss Webster mice; conditions: reference compounds, literature / previous studies; cited from earlier work
[12] = biological target: T3, KOR; conditions: read-out: Ki (nM) KOR; reference data adopted from literature; cited from earlier work
[13] = Example 1 compounds (Tables 1, 2)

Question: What does the source list for `O=C(N[C@@H]1CC[C@@]2(O)[C@H]3Cc4ccc(O)c5c4[C@@]2(CCN3CC2CC2)[C@H]1O5)c1cccs1` [Example 1 compound 26, 17-Cyclopropylmethyl-3,14β-dihydroxy-4,5α-epoxy-6β-(2′-thienylcarboxamido)morphinan hydrochloride]?
Answer: withdrawal symptoms (wet-dog shakes, escape jumps, paw tremors) [1]: significantly fewer wet-dog shakes, escape jumps, and paw tremors; withdrawal symptoms at higher doses ([1]; 5 mg/kg and above, s.c.): did not precipitate significant withdrawal symptoms at doses as high as 10 times that of NLX

Question: For “17-Cyclopropylmethyl-3,14β-dihydroxy-4,5α-epoxy-6β-(2′-thienylacetamido)morphinan hydrochloride [Example 1 compound 28]”, which Ki [2, 13] is on record?
Answer: 64.9 ± 2.38 nM

Question: Which Ki [2] does the source give for `Cl.O=C(CCc1cccs1)N[C@@H]1CC[C@@]2(O)[C@H]3Cc4ccc(O)c5c4[C@@]2(CCN3CC2CC2)[C@H]1O5` [Example 1 compound 30, 17-Cyclopropylmethyl-3,14β-dihydroxy-4,5α-epoxy-6β-[3′-(thiophen-2 yl)propanamido]morphinan hydrochloride] here?
Answer: 4.87 ± 1.19 nM

Question: What about the Ki [3] of the same molecule?
Answer: 0.26 ± 0.01 nM

Question: What about the Ki [4] of the same molecule?
Answer: 0.23 ± 0.02 nM

Question: And the “antinociceptive effect (% MPE, in words)” value [5]?
Answer: exhibited antinociception

Question: Which Ki [2, 13] does the source give for “17-Cyclopropylmethyl-3,14β-dihydroxy-4,5α-epoxy-6α-(2′-thienylacetamido)morphinan hydrochloride [Example 1 compound 27]” here?
Answer: 6.92 ± 1.63 nM

Question: With `O=C(Cc1ccsc1)N[C@@H]1CC[C@@]2(O)[C@H]3Cc4ccc(O)c5c4[C@@]2(CCN3CC2CC2)[C@H]1O5` [Example 1 compound 34, 17-Cyclopropylmethyl-3,14β-dihydroxy-4,5α-epoxy-6β-(3′-thienylacetamido)morphinan hydrochloride] as the molecule, how does the Emax [6] read?
Answer: 26.5 ± 3.17%

Question: With `O=C(Cc1ccsc1)N[C@H]1CC[C@@]2(O)[C@H]3Cc4ccc(O)c5c4[C@@]2(CCN3CC2CC2)[C@H]1O5` [Example 1 compound 33, 17-Cyclopropylmethyl-3,14β-dihydroxy-4,5α-epoxy-6α-(3′-thienylacetamido)morphinan hydrochloride] as the molecule, how does the Emax [6] read?
Answer: 28.6 ± 1.15%

Question: With `C[N@+]1(CC2CC2)CC[C@]23c4c5ccc(O)c4O[C@H]2C(=O)CC[C@@]3(O)[C@H]1C5` [MNTX, methylnaltrexone] as the molecule, how does the “blockage of GI motility inhibition by morphine (in words)” value ([7]; 10 mg/kg oral gavage, morphine 5 mg/kg) read?
Answer: no blockage was observed

Question: What about the EC50 [8] of the same molecule?
Answer: > 10000 nM

Question: What about the oral bioavailability [9] of the same molecule?
Answer: < 1%

Question: What about the EC50 [10] of the same molecule?
Answer: > 10000 nM

Question: For `CN1CC[C@]23c4c5ccc(O)c4O[C@H]2[C@@H](O)C=C[C@H]3[C@H]1C5` [morphine], which “elongation of pellet defecation time compared to naïve group” value ([7]; morphine 10 mg/kg s.c.) is on record?
Answer: 124 min

Question: For `O=C(N[C@@H]1CC[C@@]2(O)[C@H]3Cc4ccc(O)c5c4C2(CCN3CC2CC2)[C@H]1O5)c1ccncc1F` [NFP], which “AD50 mg/kg (95% CL) to antagonize morphine mediated antinociception” value [11] is on record?
Answer: 2.82 mg/kg

Question: Which Emax [6] does the source give for `O=C(CCc1cccs1)N[C@H]1CC[C@@]2(O)[C@H]3Cc4ccc(O)c5c4[C@@]2(CCN3CC2CC2)[C@H]1O5` [Example 1 compound 29, 17-Cyclopropylmethyl-3,14β-dihydroxy-4,5α-epoxy-6α-[3′-(thiophen-2″yl)propanamido]morphinan hydrochloride] here?
Answer: 43.7 ± 1.71%

Question: For `C=CCN1CC[C@]23c4c5ccc(O)c4O[C@H]2C(=O)CC[C@@]3(O)[C@H]1C5` [NLX, naloxone, reference compound], which “withdrawal symptoms (wet-dog shakes, escape jumps, paw tremors)” value [1] is on record?
Answer: precipitated withdrawal symptoms

Question: And the “AD50 mg/kg (95% CL) to antagonize morphine mediated antinociception” value [11]?
Answer: 0.05 mg/kg

Question: Which Ki [12] does the source give for `O=C(NC1CCC2(O)C3Cc4ccc(O)c5c4C2(CCN3CC2CC2)C1O5)c1ccncc1` (stereo not drawn) [NAP, 17-cyclopropylmethyl-3,14-dihydroxy-4,5α-epoxy-6β-[(4′-pyridyl)carboxamido]morphinan] here?
Answer: 278 ± 8 nM

From patent US20250195504A1, “NALTREXAMINE DERIVATIVES BEARING 5-MEMBER HETEROCYCLIC RING SYSTEMS AND OPIOID RECEPTOR MODULATORS” (VIRGINIA COMMONWEALTH UNIVERSITY, priority 2022, published 2025)
